Data as given in patent US6689767B2, “Triterpenes having antibacterial activity” (Regents of the University of Minnesota, priority 2000, dated 2004).
Where two headings read alike, the source gives them in different places.

Columns and labels:
Format in all cases: cell-based
Escherichia coli = assay: Kirby-Bauer disk diffusion growth inhibition, Escherichia coli; conditions: for zone of inhibition at 0.125 µg/mL: read-out: Zone of inhibition Escherichia coli
Procedure: (§1) The compounds disclosed herein were tested for growth inhibition against four strains of bacteria: Escherichia coli, Staphylococcus aureus, methicillin-resistant Staphylococcus aureus, and Bacillus subtilis. […] They represent […]. E. coli is a gram-negative, non-spore forming, rod-shaped, opportunistic pathogen that resides in the human digestive tract. S. aureus is a gram positive coccus, is usually found morphologically as a […], and is an opportunistic human pathogen, often residing on or in the skin. B. subtilis is a gram positive spore-forming rod. Its native environment is the soil. The chemicals were tested for growth-inhibition of the bacteria by the Kirby-Bauer method. See, e.g., Microbiology, third edition; Lansing M. Prescott, John P. Harley, and Donald A. Klein; Wm. C. Brown Publishers.
(§2) Mueller-Hinton agar (Difco Lab, Michigan) was prepared according to the manufacturer's directions, and 20 ml was dispensed in each sterile petri dish. Sterile nutrient broth (Difco Lab, Michigan) was also prepared according to the manufacturer's directions.
(§3) Bacteria were grown in liquid nutrient broth for 18 hours at 37° C. until they were turbid.
(§4) An aliquot of 0.5 ml of cultured bacteria was aseptically transferred to the surface of a Mueller-Hinton agar plat, and spread using a cotton-tipped swab. Plates were then allowed to dry for 5 minutes. Then a 10 mm diameter filter paper disk impregnated with the test chemical was placed with sterile forceps on the plate. The disks were impregnated with 100 μl of a solution of the test compound in DMSO or in water, at the indicated concentrations in Table 1.
(§5) The zones of inhibition were measured after 18 hours growth at 37° C. Tests were done in triplicate.
(§6) Additional compounds were tested for activity against E. coli, laboratory strain S. aureus (not methicillin resistant), and B. subtilis. The compounds were tested by the disk diffusion method, as in Example 1, with application of a 10 mg/mil solution of the test compound in DMSO.

Staphylococcus aureus = assay: Kirby-Bauer disk diffusion growth inhibition, Staphylococcus aureus; conditions: for zone of inhibition at 0.125 µg/mL: read-out: Zone of inhibition Staphylococcus aureus
Procedure: as §1, §2, §3, §4, §5, §6
Derivatives of lupeol were tested for inhibition of bacterial growth using the Kirby-Bauer disk diffusion method and by growth in liquid culture. For the disk diffusion method, compounds were dissolved in DMSO and 100 μl was added to the 10 mm filter paper disk. The amount of compound applied to the disk varied. The amount applied for each compound was as follows: lupeol (50 μg), lupeol-3-maleate (15 μg), lupeol-3-thiodiglycolate (15 μg), lupeol-3-dimethyl succinate (60 μg), lupeol-3-phosphate (30 μg), lupenone (50 μg), lupenon-3-oxime (50 μg), lupeol-3-amine (50 μg), lupenon-1,2-ene-2-ol (50 μg). In liquid culture, the compounds were dissolved in DMSO at 1 mg/ml and then 100 μl was added to 7 ml of sterile broth, along with a 1/200 dilution of freshly grown bacterial liquid culture.

Bacillus subtilis = assay: Kirby-Bauer disk diffusion growth inhibition, Bacillus subtilis; conditions: for zone of inhibition at 0.125 µg/mL: read-out: Zone of inhibition Bacillus subtilis
Procedure: as §1, §2, §3, §4, §5, §6

[1] = 125 ng/ml in water, 100 μl on 10 mm disk, 18 hours 37° C.
[2] = Escherichia coli, 125 ng/ml in water, 100 μl on 10 mm disk, 18 hours 37° C.
[3] = Staphylococcus aureus, 125 ng/ml in water, 100 μl on 10 mm disk, 18 hours 37° C.
[4] = Bacillus subtilis, 125 ng/ml in water, 100 μl on 10 mm disk, 18 hours 37° C.
[5] = 10 mg/ml in DMSO, 100 μl on 10 mm disk, 18 hours 37° C.
[6] = 0.5 ng/ml in water, 100 μl on 10 mm disk, 18 hours 37° C.
[7] = 5 mg/ml in DMSO, 100 μl on 10 mm disk, 18 hours 37° C.

Allobetulin-3-poly (ethylene glycol) bis (carboxymethyl) ether ester
Zone of inhibition Escherichia coli (Escherichia coli; [1]): 0 mm
Zone of inhibition Staphylococcus aureus (Staphylococcus aureus; [1]): 0 mm
Zone of inhibition Bacillus subtilis (Bacillus subtilis; [1]): 0 mm

CC1(C)CCC23CC[C@@]4(C)C(CCC5[C@@]6(C)C=C(OC(=O)CCC(=O)O)C(=O)C(C)(C)C6CC[C@]54C)C2C1OC3 (stereo partly drawn) [3-Allobetulon-1-ene-2-succinate, 3-Allobetulon-1-en-2succinate]
zone of inhibition at 0.125 µg/mL (Escherichia coli; [2]): 0 mm
zone of inhibition at 0.125 µg/mL (Staphylococcus aureus; [3]): 0 mm
zone of inhibition at 0.125 µg/mL (Bacillus subtilis; [4]): 0 mm

CN(C)[C@@H]1C(O)=C(C(N)=O)C(=O)[C@@]2(O)C(O)=C3C(=O)c4c(O)cccc4[C@@](C)(O)[C@H]3C[C@@H]12 [Tetracycline, reference compound]
zone of inhibition at 30 µg/disc (Escherichia coli; Escherichia coli, control antibiotic, 30 mcg): 19 mm
zone of inhibition at 30 µg/disc (Staphylococcus aureus; Staphylococcus aureus, control antibiotic, 30 mcg): 26 mm
zone of inhibition at 30 µg/disc (Bacillus subtilis; Bacillus subtilis, control antibiotic, 30 mcg): 31 mm

CC1(C)S[C@@H]2[C@H](NC(=O)Cc3ccccc3)C(=O)N2[C@H]1C(=O)O [Pencillin G, reference compound]
Zone of inhibition Escherichia coli (Escherichia coli; control antibiotic, 10 units): 0 mm
Zone of inhibition Staphylococcus aureus (Staphylococcus aureus; control antibiotic, 10 units): 40.0 mm
Zone of inhibition Bacillus subtilis (Bacillus subtilis; control antibiotic, 10 units): 25.0 mm

CC1(C)CCC23CC[C@@]4(C)C(CCC5[C@@]6(C)CC[C@H](O)C(C)(C)C6CC[C@]54C)C2C1OC3=O (stereo partly drawn) [Allobetulin lactone]
zone of inhibition at 0.125 µg/mL (Escherichia coli; Escherichia coli, 18 h): 0 mm
zone of inhibition at 0.125 µg/mL (Staphylococcus aureus; Staphylococcus aureus, 18 h): 0 mm
zone of inhibition at 0.125 µg/mL (Bacillus subtilis; Bacillus subtilis, 18 h): 0 mm

C=C(C)C1CCC2(COC(=O)CCCC(=O)O)CCC3(C)C(CCC4C5(C)CCC(O)C(C)(C)C5CCC43C)C12 (stereo not drawn) [Betulin 28-glutarate, Betulin-28-glutarate]
zone of inhibition at 0.125 µg/mL (Escherichia coli; [2]): 0 mm
zone of inhibition at 0.125 µg/mL (Staphylococcus aureus; [3]): 0 mm
zone of inhibition at 0.125 µg/mL (Bacillus subtilis; [4]): 0 mm

CC(=O)OC1CCC2(C)C(CCC3(C)C2CCC2C4C5OC(=O)C4(CCC5(C)C)CCC23C)C1(C)C (stereo not drawn) [3β-Acetoxy-19αH-19,28 lactone oleanan]
Zone of inhibition Escherichia coli (Escherichia coli; [1]): 0 mm
Zone of inhibition Staphylococcus aureus (Staphylococcus aureus; [1]): 0 mm
Zone of inhibition Bacillus subtilis (Bacillus subtilis; [1]): 0 mm

CC1(C)CCC23CC[C@@]4(C)C(CCC5[C@@]6(C)CC[C@H](O)C(C)(C)C6CC[C@]54C)C2C1OC3 (stereo partly drawn) [Allobetulin]
zone of inhibition at 1000 µg/mL (Escherichia coli; Escherichia coli, 1 mg/ml in DMSO, 100 μl on 10 mm disk, 18 hours 37° C.): 0 mm
zone of inhibition at 1000 µg/mL (Staphylococcus aureus; Staphylococcus aureus, 1 mg/ml in DMSO, 100 μl on 10 mm disk, 18 hours 37° C.): 0 mm
zone of inhibition at 1000 µg/mL (Bacillus subtilis; Bacillus subtilis, 1 mg/ml in DMSO, 100 μl on 10 mm disk, 18 hours 37° C.): 0 mm

C=C(C)[C@@H]1CC[C@]2(COC(=O)/C=C\C(=O)O)CC[C@]3(C)[C@H](CC[C@@H]4[C@@]5(C)CC[C@H](O)C(C)(C)[C@@H]5CC[C@]43C)[C@@H]12 [Betulin 28-maleate, Betulin-28-maleate]
Zone of inhibition Escherichia coli (Escherichia coli; [5]): 0 mm
Zone of inhibition Staphylococcus aureus (Staphylococcus aureus; [5]): 0 mm
Zone of inhibition Bacillus subtilis (Bacillus subtilis; [5]): 0 mm

C=C(C)C1CCC2(COC(=O)[C@@H](N)CCC(=O)OCc3ccccc3)CCC3(C)C(CCC4C5(C)CCC(OC(=O)[C@@H](N)CCC(=O)OCc6ccccc6)C(C)(C)C5CCC43C)C12 (stereo partly drawn) [Betulin Di-(L-glutamic acid γ-benzyl ester) ester]
Zone of inhibition Escherichia coli (Escherichia coli; [1]): 0 mm
Zone of inhibition Staphylococcus aureus (Staphylococcus aureus; [1]): 0 mm
Zone of inhibition Bacillus subtilis (Bacillus subtilis; [1]): 0 mm

C=C(C)C1CCC2(C)CCC3(C)C(CCC4C5(C)CCC(OC(=O)c6ccccc6C(=O)O)C(C)(C)C5CCC43C)C12 (stereo not drawn) [Lupeol-3-phthalate]
zone of inhibition at 0.125 µg/mL (Escherichia coli; [2]): 0 mm
zone of inhibition at 0.125 µg/mL (Staphylococcus aureus; [3]): 0 mm
zone of inhibition at 0.125 µg/mL (Bacillus subtilis; [4]): 0 mm

Hederine hydrate
Zone of inhibition Escherichia coli (Escherichia coli; [6]): 0 mm
Zone of inhibition Staphylococcus aureus (Staphylococcus aureus; [6]): 0 mm
Zone of inhibition Bacillus subtilis (Bacillus subtilis; [6]): 0 mm

Allobetulin 2-valine-ester
Zone of inhibition Escherichia coli (Escherichia coli; [1]): 0 mm
Zone of inhibition Staphylococcus aureus (Staphylococcus aureus; [1]): 0 mm
Zone of inhibition Bacillus subtilis (Bacillus subtilis; [1]): 0 mm

CC1(C)CCC23CCC4(C)C(CCC5C6(C)CCC(OC(=O)CCC(=O)O)C(C)(C)C6CCC54C)C2C1OC3 (stereo not drawn) [Allobetulin 3-succinate, Allobetulin-3-succinate]
Zone of inhibition Escherichia coli (Escherichia coli; [7]): 0 mm
Zone of inhibition Staphylococcus aureus (Staphylococcus aureus; [7]): 0 mm
Zone of inhibition Bacillus subtilis (Bacillus subtilis; [7]): 0 mm
